# US20120010178A1, “METHODS AND COMPOUNDS FOR TREATMENT OF NEURODEGENERATIVE DISORDERS” (PRESIDENT AND FELLOWS OF HARVARD COLLEGE, priority 2008, published 2012)
# “Also recorded” adds a separate entry of the source.
# How the values were obtained:
# SMN [1] = test: SMN immunofluorescence quantification (cytoplasm, nucleus, GEMs) in fibroblasts from SMA patients; format: cell-based, human; conditions: for levels of cytoplasmic and nuclear SMN (in words): substance alone
# Method in brief: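 SMN immunostained and imaged by automated confocal microscopy; per-cell cytoplasmic and nuclear SMN intensity and GEM number and intensity quantified. PFA fixation used for screening.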
# SMN [2] = test: SMN levels in mouse (ES-cell derived) motor neurons; format: cell-based; conditions: for SMN levels in motor neurons (in words): mouse motor neurons
# Description: Mouse HB9-GFP derived SMN deficient motor neuron cells were incubated for 2 days with compounds from libraries and collections.
# Motor neurons were produced from mouse ES-cells expressing cherry fluorescent protein (CFP) under the control of the motor neuron-selective Hb9 promoter, as previously described (Wichterle et al., 2002).
# GFP expressing motor neurons were derived from mouse ES cells as described below. After growing for approximately 1 week, motor neurons were treated with allsterpaullone. Two days after treatment with allsterpaullone, cells were fixed and stained with SMN antibody or GFP antibody.
# mES cells were differentiated into motor neurons according to methods adapted from Wichterle et. al., Cell (2002), 110:385-397. Briefly, mES cells were grown to 70-80% confluence in 10-cm plates (Falcon) in ES cell medium. To form embryoid bodies, cells were washed once with PBS to eliminate mES medium and then incubated with 1 ml of 0.25% trypsin (GIBCO) for 5-10 min at 21-25° C. (RT). Cells were then resuspended in 10 ml of DM1 medium (DMEM-F12, GIBCO), 10% knockout serum (GIBCO), penicillin, streptomycin, glutamine (GIBCO) and 2-mercaptoethanol (GIBCO), counted and plated at a concentration of 200,000 cells per ml in Petri dishes (Falcon). Two days later, embryoid bodies were collected and resuspended into new Petri dishes containing DM1 medium supplemented with RAc (100 nM; stock 1 mM in DMSO, Sigma) and HhAg (100 nM). […] treatment was repeated with the same concentration of RAc (100 nM) and high concentration of HhAg (1 μM). On day 6, the embryoid bodies were collected in a 15-ml Falcon tube, and incubated in Earle's balanced salt solution with 20 units of Papain and 1,000 units of DNase I (Worthington Biochemical) for 10 min at 37° C. The mixture was then triturated with a 10-ml pipette and centrifugated for 5 min at 800 rpm. The resulting cell pellet was washed with PBS and resuspended in F12 medium (F12 medium, GIBCO) with 2% fetal bovine serum (GIBCO), B-27 supplement (GIBCO), (GDNF and BDNF, 20 ng ml^−1, R&D Systems). The cells were counted and plated on poly-ornithine coated 96-well plates (VWR).
# [3] = target: T1, GSK3b (Ser-9 phosphorylation) (Homo sapiens, UniProt P49841); test: p-GSK(Ser9) phosphorylation in patient fibroblasts (western blot / immunofluorescence); format: cell-based; conditions: patient fibroblasts
# T1 construct: endogenous in cells; host or cells: SMA patient fibroblasts (GM09677), starved in 0.5% FBS before treatment
# T1 sequence (P49841 whole entry): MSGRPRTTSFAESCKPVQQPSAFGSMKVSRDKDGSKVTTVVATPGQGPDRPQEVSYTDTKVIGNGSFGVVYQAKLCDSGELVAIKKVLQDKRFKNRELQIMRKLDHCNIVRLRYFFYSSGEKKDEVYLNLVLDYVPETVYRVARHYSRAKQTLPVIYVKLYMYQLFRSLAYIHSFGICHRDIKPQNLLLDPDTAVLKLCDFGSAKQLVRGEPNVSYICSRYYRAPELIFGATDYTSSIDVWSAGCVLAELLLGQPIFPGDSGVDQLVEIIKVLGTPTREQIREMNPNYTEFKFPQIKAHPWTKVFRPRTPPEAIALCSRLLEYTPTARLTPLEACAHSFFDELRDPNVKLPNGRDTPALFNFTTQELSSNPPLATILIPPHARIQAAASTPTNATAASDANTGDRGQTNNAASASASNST
# Description: Compounds were stored at appropriate temperature and dissolved accordingly to the manufacturers (Tocris, Enzo, EMD and Sigma-Aldrich) in DMSO (Sigma-Aldrich), unless stated otherwise (Monensin Na in EtOH, DMPQ in water). Growth factors and PDGF neutralizing antibodies (R&D Systems) were reconstituted with buffers recommended by the supplier. For generation of the dose curves, 1×10^3 fibroblasts were plated on to 96-well Greiner Senso plates (VWR) and treated with compounds on the second day then fixed and stained at the indicated time points. For GSK inhibitors and performing p-GSK3b(Ser9) detection, two days after plating growth media containing 5% FBS was replaced to the media with FBS reduced down to 0.5%, to starve cells for 72 hours. Addition of the GSK inhibitors was done in 5% FBS enriched media. As previously described, starvation increases levels of constitutively activate GSK3b kinase, allowing to achieve a more dramatic inhibitory effect when GSK inhibitors are added together with growth factors that are also known to inhibit GSK by Ser-9 phosphorylation. […] For all compounds and growth factors control wells received solvent in amount equivalent to the highest concentration of the compound in a dose curve. For PDGF inhibitory studies, cells were pre-treated with kinase inhibitors for 2 hours and PDGF was added with a fresh kinase inhibitor solution and incubated for an additional 3 days.
Compound,levels of cytoplasmic and nuclear SMN (in words) (SMN [1]; SMA patient fibroblasts),"levels of cytoplasmic and nuclear SMN (in words) (SMN [1]; SMA patient fibroblasts, listed as alsterpaullone)","effect on SMN level (SMN [1]; fed cells (10% serum, not starved))",effect on SMN level (SMN [1]; pre-starved cells that received fresh media with 10% serum along with compound) [fold],effect on SMN level (SMN [1]; pre/post-starved cells (0.5% serum)) [fold],Gem intensity in neurons (in words) (SMN [2]; ES-cell derived neurons),SMN levels in motor neurons (in words) (SMN [2]),SMN levels in motor neurons (in words) (SMN [2]; listed as allsterpaullone),p-GSK-Ser9 phosphorylation (in words) [3],fold increase in cytoplasmic SMN (SMN [1]; SMA patient fibroblasts) [fold],fold increase in nuclear SMN (SMN [1]; SMA patient fibroblasts) [fold],"levels of cytoplasmic and nuclear SMN (in words) (SMN [1]; SMA patient fibroblasts, listed as platelet derived PDGF)","Avg. SMN fold increase (SMN [1]; human PDGF isoforms, SMA patient fibroblasts)"
O=C1Cc2c([nH]c3ccc([N+](=O)[O-])cc23)-c2ccccc2N1 [Alsterpaullone],increase SMN levels; also recorded: Most active compounds,able to elevate SMN in patient fibroblasts,weak effect,1.9,1.6,increases Gem intensity in neurons; also recorded: main increase was observed in Gem Intensity parameter,increases level of SMN in neurons; also recorded: able to elevate Smn,Increased SMN levels,increase in a dose dependent manner,,,,
PDGF,increase in SMN levels,,,,,,no effect on elevating SMN,,phosphorylates GSK313 in a dose-dependent manner,2.3,1.95,strongest activator,2-2.3 fold
